Experiments:
[1] = tested on: metastatic prostate cancer cell lines (LNCaP, DU145 and PC-3); assay: AnnexinV-FITC/PI apoptosis assay after Ad.IL-24 infection with or without S1R agonist; assay type: cell-based, human; details: for apoptosis by Ad.IL-24 (summary statements): prostate cancer cells, effect of S1R agonist
From the text: (§1) Referring to FIG. 1A, FIG. 1B and FIG. 1C, to test this hypothesis Ad.IL-24 was used to treat normal human immortalized epithelial cells (RWPE1), and three metastatic prostate cancer cell lines (LNCaP, DU145 and PC-3) in the presence or absence of the specific S1R agonist, (+)SKF-10047, and measured cell viability and induction of apoptosis by MTT, clonogenic, and AnnexinV-FITC/PI assays. (+)SKF-10047 inhibited Ad.IL-24-mediated killing in PC-3, LNCaP and DU145 cells.
(§2) In FIG. 1A, cells were infected with 100 pfu/cell of Ad.vector or Ad.IL-24, and treated with or without 10 μM (+)-SKF10047—a S1R agonist. Cell viability was determined by MTT assay 4 days post-infection. MTT absorbance of untreated control cells was set at 1 to determine relative number of viable cells. […] In FIG. 1B, cells were incubated in the absence or presence of 10 μM (+)-SKF10047 after infection with Ad.IL-24. Forty-eight hours post-infection, percentage of apoptosis was determined by staining with AnnexinV-FITC/PI. […] In FIG. 1C, cells were incubated in the absence or presence of 10 μM (+)-SKF10047 after infection with Ad.IL-24. Cells were subjected to clonogenic assay for 2 weeks. Results shown are an average of three independent experiments ±SD.
Annexin V binding assays. Cells were trypsinized, washed once with complete medium and PBS, resuspended in 0.5 ml of binding buffer containing 2.5 mmol/L CaCl2, and stained with allophycocyanin-labeled Annexin V (Becton Dickinson Biosciences, Palo Alto, Calif.) and propidium iodide (PI) for 15 min at room temperature. Flow cytometry assays were performed as described in Sauane M, Su Z Z, Dash R, et al. “Ceramide plays a prominent role in MDA-7/IL-24-induced cancer-specific apoptosis” J Cell Physiol. 2010 March; 222(3):546-55.

prostate DU145 = assay: Calcium imaging (Fura-2), cytosolic calcium; assay type: cell-based, human; details: Ad.IL-24 plus 10 μM (+)-SKF10047, 12 hours
Description: FIG. 2B depicts a ratio of calcium ratios for cells infected with 100 pfu/cell of Ad.vector or Ad.IL-24, and treated with or without 10 μM (+)-SKF10047. The ratios are the levels cytosolic calcium at T=0 and T=12 hours. A determination was made concerning whether Ad.IL-24 caused any changes in the cytosolic levels of Ca^++ in prostate cancer cells and if Ca^++ mobilization is S1R-dependent after Ad.IL-24 infection. Ad.IL-24 infection increased cytosolic Ca^++ levels in prostate DU145 within 12 hours. The increase in Ca^++ was blocked by S1R agonist (+)-SKF10047.
Calcium imaging. For Calcium (Ca^++) imaging, cells were plated in 35 mm glass bottom petri dishes (MatTek) and allowed to attach for 12 h prior to treatment(s). Inhibitors were added 4 h after infection with adenovirus. After 12 h, cells were then rinsed with a Ringer's solution maintained at 37° C. Cells were then incubated in Ringer's solution containing 0.5 μM Fura-2 tetra-acetoxymethyl ester (Fura-2) (Molecular Probes), 10% Pluronic F127 and 250 μm sulfinpyrazone (Sigma-Aldrich, Inc) for 40 min at 22° C. Fura-2 was excited by alternating 340 and 380 nm light and images were obtained every 50 ms as a measure of Ca^++ concentration. Background intensity was zero. […]

[2] = tested on: BiP, CHOP, and p-eIF2a proteins; assay: Western blot analysis of ER stress markers; assay type: cell-based; details: 100 pfu/cell Ad.IL-24 plus 10 μM (+)-SKF10047; 48 h
Description: Cells were infected with 100 pfu/cell of Ad.vector or Ad.IL-24, and treated with or without 10 μM (+)-SKF10047 (SKF) for indicated times. In FIG. 2A, changes in BiP, CHOP, and p-eIF2a proteins were evaluated by Western blot analysis 48 h after indicated treatments. […] Up-regulation by IL-24 of several ER stress markers is shown, including p-eIF2a, CHOP, and BiP, were inhibited by treatment with (+)SKF-10047.
Western Blot Analysis. Protein extracts were prepared with RIPA buffer containing a mixture of protease inhibitors as described in Sauane M, Su Z Z, Dash R, et al. “Ceramide plays a prominent role in MDA-7/IL-24-induced cancer-specific apoptosis” J Cell Physiol. 2010 March; 222(3):546-55. Fifty micrograms of protein was applied to a 12% SDS/PAGE and transferred to nitrocellulose membranes. The membranes were probed with polyclonal or monoclonal antibodies to IL-24, p-eIF2a, BiP, CHOP, Sigma 1 Receptor, and beta-actin.

[3] = tested on: metastatic prostate cancer cell lines (LNCaP, DU145 and PC-3); assay: Clonogenic (colony formation) assay after Ad.IL-24 infection with or without S1R agonist; assay type: cell-based, human; details: Ad.IL-24 plus 10 μM (+)-SKF10047; 2 weeks
From the text: as §1, §2
Colony formation assays. Cells were infected with 100 pfu/cell with Ad.vector or Ad.IL-24. The next day, 200 to 500 cells were seeded to determine colony-forming ability. […]

DU-145 cells = assay: Reactive oxygen species (ROS) generation, DCFH-DA fluorescence; assay type: cell-based, human; details: Ad.IL-24 plus 10 μM (+)SKF-10047 for 24 h
Description: Intracellular ROS levels were measured with 10 μM DCF-DA 30 min after treatments. The results are expressed as the mean±S.D. of three independent experiments. The time course of mitochondrial changes (ROS generation) were determined after treatment of DU145 cells with Ad.IL-24. Cells were infected with Ad.IL-24, collected at 24 h, and stained for ROS production with dichlorofluorescin diacetate (DCFH-DA). […] Taken together, the inhibition by an S1R agonist of IL-24-mediated ER stress, Ca^++ mobilization and ROS production, further strengthen the hypothesis that IL-24 action in cancer cells is mediated by an antagonistic effect of IL-24 on S1R.
Assessment of reactive oxygen species (ROS) generation. DU-145 cells were seeded in 96-well plates at a concentration of 1×10^4 cells/well and were infected with Ad.IL-24 for 12 h. The cell cultures were treated with 10 μM 2,7-dichloro-fluorescein diacetate (DCFH-DA; Sigma-Aldrich, St. Louis, Mo.) in PBS for 30 min After incubation, the media was discarded, and the cells were washed with PBS. The fluorescence intensity was determined using a fluorescence plate reader at 485 nm for excitation and 530 nm for emission.

[4] = tested on: metastatic prostate cancer cell lines (LNCaP, DU145 and PC-3); assay: MTT cell viability assay after Ad.IL-24 infection with or without S1R agonist; assay type: cell-based, human
From the text: as §1
as §2, with “Cells were subjected to clonogenic assay for 2 weeks. Results shown are an average of three independent experiments ±SD.” left out
MTT Assays. […] Cell growth and viable cell numbers were monitored by 3-(4,5 dimethylthiazol-2-yl)-2,5-diphenyltetrazolium bromide (MTT) staining as described in Sauane M, Su Z Z, Dash R, et al. “Ceramide plays a prominent role in MDA-7/IL-24-induced cancer-specific apoptosis” J Cell Physiol. […]

S1R [5] = biological target: T1, S1R (Homo sapiens, UniProt Q99720); assay: Co-immunoprecipitation of S1R with IL-24; assay type: binding; details: 100 pfu/cell Ad.IL-24, 48 hours
T1 construct: DU-145 cells were infected with Ad.IL-24; endogenous in cells; host or cells: DU145 cells (ATCC), infected with Ad.IL-24 or Ad.vector
Description: In FIG. 3A, DU145 cells were infected with 100 pfu/cell of Ad.vector or Ad.IL-24 and immunoprecipitation analysis was done 48 hours later using S1R antibody.
In FIG. 3B, DU-145 cells were infected with 100 pfu/cell of Ad.vector or Ad.IL-24 and immunoprecipitation analysis was done 48 hours later using IL-24 antibody.
Co-immunoprecipitation of S1R with IL-24. Cells were infected with Ad.vector or Ad.IL-24. After 48 hours, protein was extracted from subconfluent cultures using lysis buffer (Pierce, Rockford, Ill.) containing 1 mM phenylmethlsulfonylfluoride (Sigma-Aldrich, Inc) and quantified using the BCA protein assay kit (Pierce, Rockford, Ill.). Antibodies were conjugated to Protein-G beads according, the Sigma Protein-G Immunoprecipitation Kit manufacturer's instructions (Sigma-Aldrich, Inc). Western blot analysis was done as described before using the following primary antibodies at 1:1,000 dilutions: anti-IL-24, and anti-S1R. Secondary antibodies specific for heavy chain of immunoglobulin G (IgG) were used as the light chain of IgG interfered with detection of IL-24 because of similar size.

S1R [6] = biological target: T1, S1R; assay: Immunofluorescence co-localization of IL-24 and S1R; assay type: cell-based; details: DU145 cells infected with Ad.IL-24; 24 h; confocal immunofluorescence
Description: In FIG. 3A and FIG. 3B, comparative co-localization of IL-24 and S1R proteins was analyzed in DU145 cells after infection with the Ad.IL-24 virus. […] DU-145 cells were infected with Ad.IL-24. After 24 h, cells were fixed and IL-24 and S1R proteins were detected by immunofluorescence using anti-IL-24 and anti-S1R antibodies. The analysis of co-localization of IL-24 and S1R was performed using a DMI6000B inverted confocal microscope with TCS SP5 system (Leica Microsystems CMS). Without wishing to be bound to any particular theory, S1R is believed to interact with IL-24.
Immunofluorescence. Cells were seeded onto chamber slides (Falcon; BD Biosciences, San Jose, Calif.) and maintained in DMEM with 10% fetal bovine calf serum, 24 hours postinfection, cells were fixed with 2% paraformaldehyde, permeabilized by 0.1% Triton X-100, and then incubated with primary antibodies: IL-24, and S1R. Controls were incubated with only the secondary antibodies under the same experimental conditions.

T1 sequence (Q99720 whole entry): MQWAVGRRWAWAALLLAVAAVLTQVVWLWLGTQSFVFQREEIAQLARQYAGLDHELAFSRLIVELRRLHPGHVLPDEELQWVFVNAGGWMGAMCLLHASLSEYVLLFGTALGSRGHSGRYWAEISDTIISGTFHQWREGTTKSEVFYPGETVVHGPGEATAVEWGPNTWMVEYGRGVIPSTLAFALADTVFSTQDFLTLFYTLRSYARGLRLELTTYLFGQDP

| Molecule | cytotoxic effect of Ad.IL-24, percentage of apoptosis by AnnexinV-FITC/PI (FIG. 1B) ([1]; Ad.IL-24 plus 10 μM (+)-SKF10047, 48 hours post-infection) | apoptosis by Ad.IL-24 (summary statements) [1] | apoptosis by Ad.IL-24 (summary statements) ([1]; listed as (+) SK-10047) | increase in Ca++ after Ad.IL-24 infection (FIG. 2B) (prostate DU145) | Up-regulation by IL-24 of ER stress markers p-eIF2a, CHOP, and BiP (FIG. 2A) [2] | cytotoxic effect of Ad.IL-24, clonogenic assay (FIG. 1C) [3] | Ad.IL-24 increased ROS (FIG. 2C) (DU-145 cells) | cytotoxic effect of Ad.IL-24, cell viability by MTT (FIG. 1A) ([4]; 100 pfu/cell Ad.IL-24 plus 10 μM (+)-SKF10047, 4 days post-infection) | Ad.IL-24-mediated killing ([4]; PC-3, LNCaP and DU145 cells, viability and apoptosis by MTT, clonogenic and AnnexinV-FITC/PI assays, effect of S1R agonist) | interaction with S1R: immunoprecipitation using anti-S1R antibody, immunoblotting with anti-IL-24 antibody (FIG. 3A) (S1R [5]; DU145 cells) | interaction with S1R: immunoprecipitation using anti-IL-24 antibody, probed with anti-S1R antibody (FIG. 3B) (S1R [5]; DU-145 cells) | co-localization with S1R (S1R [6]) |
| --- | --- | --- | --- | --- | --- | --- | --- | --- | --- | --- | --- | --- |
| (+)-SKF10047 | substantially negated | inhibits | blocks | blocked | inhibited | substantially negated | inhibited | substantially negated | inhibited |  |  |  |
| IL-24: member of the IL-10 cytokine family, immunomodulatory cytokine generated from Ad.IL-24 infection (protein, UniProt Q13007 52-206, looked up) Interleukin-24: QEFHFGPCQVKGVVPQKLWEAFWAVKDTMQAQDNITSARLLQQEVLQNVSDAESCYLVHTLLEFYLKTVFKNYHNRTVEVRTLKSFSTLANNFVLIVSQLQPSQENEMFSIRDSAHRRFLLFRRAFKQLDVEAALTKALGEVDILLTWMQKFYKL |  |  |  |  |  |  |  |  |  | physical interaction | coimmunoprecipitated | co-localized |
